Test systems include NCI/ADR-RES ovarian; BT-549 breast; HS 578T breast; MOLT-4 leukemia; HT29 colon; MDA-N; SN12C renal; MDA-MB-231 breast; SK-MEL-2 melanoma; CAKI-1 renal; OVCAR-8 ovarian; MCF7 breast; PC-3 prostate; A498 renal; MDA-MB-435; NCI-H226 lung.
What all share (assay): NCI-60 cell line screen, 48 h

“And” between values parts separate entries of the source, which are not always exact repeats. Identical values can stand only once.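 96-well plates; 48 h exposure; 5 concentrations. Endpoints by linear interpolation between flanking doses. Not reached: highest tested concentration assigned. Abbreviation: GI50, concentration required for 50% inhibition of growth. Definition used: TGI = concentration required for complete inhibition of growth.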 *1 amine or outer side, *2 acyl side, *3 side chain or, on linkers, in order; H or OH if unused. Where a SMILES comes first, the peptide text is derived from it. Bridges are numbered along the chain shown (N, C = ends). Roman numbers before positions name the chains, in order. [ ]: non-standard residue; d: D form. Actinocin(9to1) = Cc1c2oc3c(C)ccc(C(=O)[*:1])c3nc-2c(C(=O)[*:2])c(N)c1=O; NMeV = CN[CH](C(=O)O)C(C)C; Sar = CNCC(=O)O Where only a bound is given, the exact number is not on record here.

Consider `NC(Cc1ccc(OCc2ccccc2)cc1)C(=O)NC(Cc1ccccc1)C(=O)Oc1c(Cl)c(Cl)c(Cl)c(Cl)c1Cl` (stereo unspecified), for which the TGI with NCI/ADR-RES ovarian was 40.7 µM; in the assay with BT-549 breast, 32.7 µM; in the assay with HS 578T breast it was 31 µM; in the assay on MOLT-4 leukemia, > 100 µM; in the assay on HT29 colon it was 32.1 µM; in the assay on MDA-N it was 26.8 µM. For the same compound, the TGI with SN12C renal was determined as 32 µM; with MDA-MB-231 breast, 25.7 µM; in the assay with SK-MEL-2 melanoma, 26.5 µM; in the assay on CAKI-1 renal it was 30.7 µM; in the assay on OVCAR-8 ovarian, 31.8 µM; in the assay with MCF7 breast, 36 µM. The TGI in the assay on PC-3 prostate stood at 32.4 µM; in the assay on A498 renal, 37.9 µM; in the assay with MDA-MB-435, 33.9 µM; in the assay on NCI-H226 lung, 26.5 µM.
For `CC(C)(C)c1ccc(C(O)CCCN2CCC(C(O)(c3ccccc3)c3ccccc3)CC2)cc1` (stereo unspecified), the GI50 in the assay with MOLT-4 leukemia was 2.16 µM; with MDA-N, 23.7 µM; in the assay on PC-3 prostate, 1.61 µM. The TGI in the assay on MOLT-4 leukemia is 5.32 µM; with HT29 colon it was 2.23 µM and 20.9 µM; in the assay with MDA-N it was 42.6 µM.
Consider `O=C(NNC(=S)Nc1ccccc1)c1nsc2ccccc12`, for which the TGI was 98.5 µM in the assay on MOLT-4 leukemia; > 100 µM with HT29 colon; > 100 µM in the assay on SN12C renal; > 100 µM with SK-MEL-2 melanoma; > 100 µM in the assay on OVCAR-8 ovarian.
For the compound `Cc1c2oc3c(C)ccc(C(=O)NC4C(=O)NC(Cc5ccccc5)C(=O)N5CCCC5C(=O)N(C)CC(=O)N(C)C(C(C)C)C(=O)OC4C)c3nc-2c(C(=O)NC2C(=O)NC(Cc3ccccc3)C(=O)N3CCCC3C(=O)N(C)CC(=O)N(C)C(C(C)C)C(=O)OC2C)c(N)c1=O` (stereo unspecified) (I: TFP[Sar][NMeV] / II: TFP[Sar][NMeV]; ester I:1-I:C, II:1-II:C; linker I:N-II:N via Actinocin(9to1); configuration not given here), the GI50 in the assay with NCI/ADR-RES ovarian was 0.877 µM. Also, the TGI was > 100 µM with NCI/ADR-RES ovarian; 0.0135 µM with BT-549 breast; 0.0472 µM and 0.055 µM in the assay with HS 578T breast; < 0.001 µM in the assay on MOLT-4 leukemia; 0.0108 µM in the assay with HT29 colon; 0.0442 µM with MDA-N. The TGI in the assay on MDA-MB-231 breast was 0.255 µM; in the assay on CAKI-1 renal it was 0.21 µM; in the assay with OVCAR-8 ovarian it was 1.53 µM; in the assay with MCF7 breast, > 100 µM; with A498 renal, 0.0244 µM; with MDA-MB-435, 0.0222 µM. Besides, the TGI with NCI-H226 lung was 0.0214 µM and 0.0312 µM.

(Values after PubChem BioAssay (NCI).)
